Experimental findings from publication PMC4671066, “Characterization of the 26S proteasome network in Plasmodium falciparum” (Scientific Reports, 2015) are described below.

In experiment [1] the target is T1, P. falciparum 26S proteasome, β5 subunit (chymotrypsin-like activity) (Plasmodium falciparum, UniProt Q8IJT1).
T1 construct: gene PF3D7_1011400; with other 20S and 19S proteasome subunits
T1 sequence (Q8IJT1 61-271): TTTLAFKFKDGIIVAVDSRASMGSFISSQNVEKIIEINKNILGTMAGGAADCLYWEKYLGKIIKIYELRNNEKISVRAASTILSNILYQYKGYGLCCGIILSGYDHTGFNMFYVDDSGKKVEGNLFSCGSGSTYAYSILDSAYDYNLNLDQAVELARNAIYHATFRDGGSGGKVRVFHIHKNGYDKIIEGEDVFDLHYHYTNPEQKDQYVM
T1 sequence (A0A5K1K7U1 39-240 partner): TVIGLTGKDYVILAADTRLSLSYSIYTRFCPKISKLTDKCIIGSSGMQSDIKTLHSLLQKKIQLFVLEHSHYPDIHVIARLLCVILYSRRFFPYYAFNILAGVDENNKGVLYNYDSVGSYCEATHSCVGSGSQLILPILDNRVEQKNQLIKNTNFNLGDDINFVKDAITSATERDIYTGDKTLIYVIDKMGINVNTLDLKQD
Format: biochemical.

Experiment [2] deals with T2, PfUSP14 (PFE1355c, ubiquitin carboxyl-terminal hydrolase, putative) (Plasmodium falciparum, UniProt Q8I3J3).
T2 construct: gene PF3D7_0527200; recombinant hexahistidyl-tagged PfUSP14
T2 sequence (Q8I3J3 1-605): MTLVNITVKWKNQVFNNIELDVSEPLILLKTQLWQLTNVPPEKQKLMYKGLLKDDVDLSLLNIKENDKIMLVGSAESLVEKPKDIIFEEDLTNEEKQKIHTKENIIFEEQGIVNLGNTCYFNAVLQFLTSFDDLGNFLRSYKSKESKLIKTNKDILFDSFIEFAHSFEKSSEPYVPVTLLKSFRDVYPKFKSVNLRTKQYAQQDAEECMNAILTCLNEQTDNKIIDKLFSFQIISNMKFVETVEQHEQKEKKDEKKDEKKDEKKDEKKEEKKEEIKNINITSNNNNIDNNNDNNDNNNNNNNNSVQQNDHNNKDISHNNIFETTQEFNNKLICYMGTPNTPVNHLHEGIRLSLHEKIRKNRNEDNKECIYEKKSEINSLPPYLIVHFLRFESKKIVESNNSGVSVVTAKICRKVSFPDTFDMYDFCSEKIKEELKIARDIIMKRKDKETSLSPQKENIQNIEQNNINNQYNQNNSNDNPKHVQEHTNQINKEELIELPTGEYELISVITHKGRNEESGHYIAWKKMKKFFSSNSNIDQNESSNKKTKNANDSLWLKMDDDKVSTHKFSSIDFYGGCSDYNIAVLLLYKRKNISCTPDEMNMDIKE
The experiment can be described thus: concentration-dependent inhibition of recombinant PfUSP14 deubiquitinase activity. Format: biochemical.

For `CC(=O)N[C@@H](CSC(=O)[C@]1([C@@H](O)C(C)C)NC(=O)[C@H](C)[C@@H]1O)C(=O)O` [lactacystin], the “fluorogenic peptide (Suc-LLVY-AMC) cleavage by purified proteasome, inhibitor at” value in experiment [1] is “the respective proteolytic activities were shown to be inhibited by the proteasome inhibitors MG132 and lactacystin”.
Regarding `C=CC(=O)N1C/C(=C\c2ccc([N+](=O)[O-])cc2)C(=O)/C(=C/c2ccc([N+](=O)[O-])cc2)C1` [b-AP15], the IC50 (as a rule, the concentration that inhibits the measured activity by half) in experiment [2] worked out at 11.3 ± 4.7 µM.
